The source of these data is US20230048888A1, “USE OF TRIAZOLOTRIAZINE DERIVATIVE IN TREATMENT OF DISEASES” (ZHEJIANG VIMGREEN PHARMACEUTICALS, LTD., priority 2019, published 2023).

The target of one data set is T1, adenosine receptors A2A (Homo sapiens, UniProt P29274).
T1 construct: expressed in transfected cells; host or cells: HEK293 (hADORA2A-HEK293)
The data set can be described thus: TR-FRET-based cAMP accumulation assay in hADORA2A-HEK293 cells. The format is cell-based. The conditions noted are these: NECA at EC80, hADORA2A-HEK293, read-out: A2AR activity (IC50). As to the method:
The inhibitory effects of the test compounds on the adenosine receptors A2A were evaluated by TR-FRET-based cAMP accumulation assay. The method included, in HEK293 cells (hADORA2A-HEK293) expressing A2AR, the production of cAMP stimulated by NECA and the inhibitory effect of A2A receptor antagonists on cAMP. All cells were cultured in a complete medium at 37° C. in the presence of 5% CO2. After being digested with trypsin, the cells were collected by centrifugation at 200 g for 5 minutes. The cells were resuspended in a fresh complete medium, and then the cell viability was counted by a trypan blue exclusion method. […] The cells were diluted with Hank's buffer solution containing HEPES (5 mM), BSA stabilizer (0.1%) and Rolipram (10 μM), then added to a 384-well white non-transparent plate (cells/well, 10 μl/well), and incubated with the test compound at an appropriate concentration (11 concentrations) for 20 minutes at room temperature. Then, the A2A receptor agonist NECA (final concentration=EC80, which was determined in the same experiment performed earlier) was added to the sample, and the sample was incubated again at 37° C. for 30 minutes.
An inhibition rate (%) was calculated according to the following formula, and an IC50 value was calculated from a concentration-inhibition (%) curve after log conversion.
A curve corresponding to the dose was fitted by using XLfit software and the IC50 was determined.
(In general: TR-FRET usually uses a lanthanide donor and a delayed reading to cut background.)

Data set [1] can be described thus: Pharmacokinetics of test compounds in SD rats (15.2; IV and PO, mixed administration). The format is in vivo. The conditions noted are these: PO, 3 mg/kg.
Experiment in data set [2]: as above
The class given is in vivo. Conditions: male, Sprague-Dawley, rat, plasma, SD rats, PO; for AUC(0-t): 2 mg/kg, mixed administration (6 compounds per group). As to the method:
Administration dose: the compounds in this group were all administered in a mixed way, with 6 compounds in each group for mixed PO administration.
Blood was collected based on the blood collection points in the test protocol. 50 μL of plasma sample was added with acetonitrile (containing 5 ng/mL Verapamil) being 3 folds of the volume thereof; the resulting mixture was vortexed for 30 s, and then centrifuged for 15 min at 15,000 rpm at 4° C.; and 10μ L of supernatant was taken for LC-MS/MS analysis.
For each compound, 3 male SD rats weighing 200-220 g were fasted for one night before dosage, but had access to water.
Orally intragastric administration: before intragastric administration and at 0.083 h, 0.25 h, 0.5 h, 1 h, 2 h, 4 h, 8 h and 24 h after administration (for Compounds 40, 27, 40 and 47), or at 0.25 h, 0.5 h, 1 h, 4 h, 6 h and 8 h after administration (for Compounds 44 and 48), orbital blood was collected and put in a test tube that was treated with heparin sodium, and after centrifugation, the supernatant plasma was collected for LC-MS/MS analysis.
The plasma samples were processed according to the method for “sample treatment” and then analyzed by LC-MS/MS, accompanied with the standard curve and quality control samples. At a time point when the upper limit of quantification was exceeded, the samples were diluted 10 or 100 folds for analysis. All measured data were collected and processed by Analyst 1.6.3 software, and the data were calculated and processed with Microsoft Excel. With DAS 3.2.8 software, the pharmacokinetic parameters were calculated by the statistical moment method. The pharmacokinetic parameters mainly include Tmax, t1/2, Cmax, AUC(0-t), etc.

Data set [3] in a line: Pharmacokinetics of Compounds 27, 40, 22 and 41 in ICR mice in different modes of administration. Conditions: for AUC(0-t) / Cmax / half-life: ICR. The class given is in vivo. An excerpt: WinNonlin® 6.4 was used as the calculation software for PK parameters.
Setting [4] is: male, Sprague-Dawley, rat, plasma.

T1 sequence (P29274 whole entry): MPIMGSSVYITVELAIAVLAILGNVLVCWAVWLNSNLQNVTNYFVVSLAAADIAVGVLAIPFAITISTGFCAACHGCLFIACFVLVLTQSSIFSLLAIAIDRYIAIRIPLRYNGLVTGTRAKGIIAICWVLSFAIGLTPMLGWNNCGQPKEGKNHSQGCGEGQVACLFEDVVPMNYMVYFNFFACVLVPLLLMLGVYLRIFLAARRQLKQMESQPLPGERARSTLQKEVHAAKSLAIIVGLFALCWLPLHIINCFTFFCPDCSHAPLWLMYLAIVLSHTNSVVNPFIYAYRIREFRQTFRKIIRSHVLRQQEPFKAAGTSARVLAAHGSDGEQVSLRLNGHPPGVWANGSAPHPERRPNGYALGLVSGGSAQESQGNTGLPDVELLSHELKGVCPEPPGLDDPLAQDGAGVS

By IC50 is commonly meant the concentration that gives 50% inhibition. One may read the AUC(0-t) as the area under the concentration-time curve up to a stated or last time point. A higher AUC(0-t) goes with more exposure. For orientation: Cmax means the maximum level reached in the sampled fluid or tissue. On to `COCCn1nnc(-c2ccc(CCNc3nc(N)n4nc(-c5ccco5)nc4n3)cc2)n1` [Compound 47, N5-(4-(2-(2-methoxyethyl)-2H-tetrazol-5-yl)phenethyl)-2-(furan-2-yl)-[1,2,4]triazolo[1,5-a][1,3,5]triazine-5,7-diamine], for which, on adenosine receptors A2A, the IC50 was 13.9 nM. Also, the Cl_F_pred in data set [1] was determined as 23.1623 mL/min/kg. Moreover, the AUC(0-t) in data set [1] (setting [4]) came to 1500 ng·h/mL; in data set [2] it was 779 ng·h/mL. The compound further had a Cmax in data set [1] (setting [4]) of 538 ng/mL. Further, the half-life in data set [2] (3 mg/kg, read-out: T½ (converted)) was 2.25 h.

As for `CCn1nnc(-c2ccc(CCNc3nc(N)n4nc(-c5ccco5)nc4n3)cc2)n1` [Compound 41, N5-(4-(2-ethyl-2H-tetrazol-5-yl)phenethyl)-2-(furan-2-yl)-[1,2,4]triazolo[1,5-a][1,3,5]triazine-5,7-diamine], on adenosine receptors A2A, the IC50 came to 7.87 nM. Moreover, in data set [3] (mouse, in vivo, iv, 1 mg/kg), the AUC(0-t) is 1110 ng·h/mL, the Cmax was 2230 ng/mL and the half-life was 0.28 h. In data set [3] (mouse, in vivo, po, 5 mg/kg), this compound gave an AUC(0-t) of 1800 ng·h/mL, a Cmax of 1300 ng/mL and a half-life of 1.85 h. In data set [3] (PO, 5 mg/kg), the “Cl—F—pred” value stood at 48.7 mL/min/kg and the F is 32.51%. For the same compound, the clearance in data set [3] (mouse, in vivo, IV, 1 mg/kg, read-out: Cl—pred (converted)) was 15.2 mL/min/kg. The compound further had an AUC(0-t) in data set [2] of 1890 ng·h/mL.
